The results in this text go back to ChEMBL document CHEMBL1201862, “PubChem BioAssay data set” (2004).

Common to all, as to assay: NCI tumour cell line growth inhibition, 48 h
For assay [1], the system named is MDA-N.
Assay [2] concerns HCT-15.
In assay [3] the test system is NCI-H460.
The test system of assay [4] is MDA-MB-231.
In assay [5] the test system is NCI-H23.
Assay [6] deals with OVCAR-8.
For assay [7], the system named is DU-145.
Assay [8] relates to EKVX.
The test system of assay [9] is U-251.
For assay [10], the system named is SK-OV-3.
Assay [11] concerns UO-31.
Assay [12] deals with MCF7.
Assay [13] relates to M14.
Assay [14] relates to A549.
Assay [15] concerns CAKI-1.
For assay [16], the system named is COLO 205.
For assay [17], the system named is SN12C.
Assay [18] relates to Hs-578T.
In assay [19] the test system is UACC-62.

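A five-concentration, 48-hour dose response in 96-well plates underlies each endpoint, interpolated linearly between surrounding concentrations. Here, GI50 denotes the concentration required for 50% inhibition of growth.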 Activity calls are given as the source filed them. Cut-off read from the data, not from the text of the source: active = GI50 up to about 1.1 µM and inactive = higher.

`CC(C)(C)C(=O)C(C#N)C(=O)C(C)(C)C`: the GI50 in assay [1] is > 100 µM (inactive); in [2] it was more than 100 µM; in [3], > 100 µM (inactive); in [4], > 100 µM (inactive); in [5] it was > 100 µM (inactive); in assay [6] it was > 100 µM (inactive). The GI50 in assay [7], in assay [8], in assay [9], in assay [10], in [11] and in assay [12] was > 100 µM (inactive) each time. In addition, the GI50 in assay [13], in assay [14], in [15], in [16], in assay [17] and in [18] was > 100 µM (inactive) in each case.
In the case of `OC1COC(n2c3ccc(Br)cc3c3ccc4c5ccccc5[nH]c4c32)C(O)C1O` (stereo unspecified), the GI50 was 4.4 µM (inactive) in assay [1]; 3.37 µM in assay [2]; 2.58 µM (inactive) in [3]; 2.14 µM (inactive) in assay [4]; 3.02 µM (inactive) in [5]; 3.65 µM (inactive) in [6]. Besides, the GI50 in assay [7] was 3.66 µM (inactive); in [8], 4.59 µM (inactive); in assay [9], 5.01 µM (inactive); in [10] it was 0.832 µM (active); in assay [11] it was 2.82 µM (inactive); in assay [12], 2.99 µM (inactive). Further, the GI50 in [13] was 3.12 µM (inactive); in [19] it was 0.643 µM (active); in [14], 2.61 µM (inactive); in [15], 3.13 µM (inactive); in [16] it was 1.89 µM (inactive); in assay [17], 4.84 µM (inactive). In addition, in assay [18], the GI50 was 3.18 µM (inactive).
Regarding `CC[C@@H]1CC[C@@H]2[C@H](CC[C@]3(C)[C@@H](O)CC[C@@H]23)[C@H]1C(=O)O`, the GI50 in [1] was > 100 µM (inactive); in assay [2], more than 100 µM; in assay [3], > 100 µM (inactive); in [4], > 100 µM (inactive); in assay [5], > 100 µM (inactive); in [6], > 100 µM (inactive). In addition, the GI50 in assay [7], in assay [8], in assay [9], in assay [10], in assay [11] and in [12] was > 100 µM (inactive) throughout. Also, the GI50 in [13], in assay [19], in [14], in [15], in assay [16] and in assay [17] was > 100 µM (inactive) throughout. Further, the GI50 in [18] was > 100 µM (inactive).
As for `COc1ccc(NC(=S)N/N=C(\C)c2nc3cccnc3[nH]2)cc1`, the GI50 in assay [1] is 11.7 µM (inactive); in assay [2], 4.36 µM; in assay [3] it was 2.94 µM (inactive); in assay [4], 5.9 µM (inactive); in assay [5], 10 µM (inactive); in [6], 3.19 µM (inactive). Moreover, the GI50 was 6.17 µM (inactive) in assay [7]; 2.32 µM (inactive) in [8]; 3.87 µM (inactive) in assay [9]; 13.5 µM (inactive) in assay [10]; 1.97 µM (inactive) in assay [11]; 3.41 µM (inactive) in assay [12]. The GI50 in assay [19] is 3.93 µM (inactive); in assay [14], 5.53 µM (inactive); in [15], 3.96 µM (inactive); in assay [16], 4.52 µM (inactive); in assay [17], 5.65 µM (inactive); in assay [18], 19.6 µM (inactive).
With `C/C=C/C(=O)N1C(=O)OC[C@@H]1c1ccccc1`, the GI50 in assay [1] was 20.7 µM (inactive); in assay [2] it was 23.3 µM; in assay [4], 22 µM (inactive); in assay [5] it was 17.2 µM (inactive); in assay [6], 16.7 µM (inactive); in [7] it was 20.5 µM (inactive). For the same compound, the GI50 in [8] was 17.6 µM (inactive); in assay [9] it was 23.1 µM (inactive); in assay [10] it was 18.2 µM (inactive); in assay [11] it was 19.5 µM (inactive); in assay [12], 14.7 µM (inactive); in assay [13], 19.4 µM (inactive). Moreover, the GI50 in assay [14] is 19.1 µM (inactive); in assay [15], 18.3 µM (inactive); in assay [16], 21.8 µM (inactive); in [17] it was 20.5 µM (inactive); in assay [18], 24.8 µM (inactive).
As to `CCc1nn(CN2CCN(C)CC2)c(=S)n1/N=C\c1ccc(-c2ccc([N+](=O)[O-])cc2)o1`, the GI50 in assay [1] was 94 µM (inactive); in [2], 61.9 µM; in assay [3], 57.4 µM (inactive); in [4] it was 39.1 µM (inactive); in assay [5], 34.9 µM (inactive); in assay [6] it was 35.5 µM (inactive). Moreover, the GI50 in assay [7] was 50.2 µM (inactive); in assay [8], 43.4 µM (inactive); in assay [9] it was 43.6 µM (inactive); in assay [10], 40.7 µM (inactive); in assay [11] it was 56.6 µM (inactive); in assay [12] it was 40.5 µM (inactive). Moreover, the GI50 in [13] was 80.4 µM (inactive); in assay [19], 39 µM (inactive); in assay [14], 36.2 µM (inactive); in [15], 74.5 µM (inactive); in assay [17], 58.2 µM (inactive); in assay [18] it was 56.9 µM (inactive).
For the compound `CCCCCCCCCCCCCCCC(=O)OCC(COP(=O)(O)OCCNC(=O)CCSSc1ccccn1)OC(=O)CCCCCCCCCCCCCCC` (stereo unspecified), the GI50 was > 100 µM (inactive) in assay [1]; more than 100 µM in assay [2]; > 100 µM (inactive) in [3]; > 100 µM (inactive) in [4]; > 100 µM (inactive) in [5]; > 100 µM (inactive) in [6]. The GI50 in assay [7], in assay [8], in assay [9], in assay [10], in assay [11] and in assay [12] was > 100 µM (inactive) in each case. Moreover, the GI50 in [13], in assay [19], in assay [14], in assay [15], in [16] and in assay [17] was > 100 µM (inactive) throughout. Also, the GI50 in assay [18] is > 100 µM (inactive).
Turning to `CCCCCCCCCCCCCCCC(=O)ON1C(=S)NC(C)(c2ccccc2)C1=S` (stereo unspecified), the GI50 in assay [1] was > 100 µM (inactive); in [2], 51.4 µM; in [3], > 100 µM (inactive); in [4] it was > 100 µM (inactive); in assay [5], > 100 µM (inactive); in assay [6], > 100 µM (inactive). The GI50 in assay [7] was > 100 µM (inactive); in [8] it was > 100 µM (inactive); in assay [10], > 100 µM (inactive); in [11], > 100 µM (inactive); in assay [12] it was > 100 µM (inactive); in assay [13], 30.3 µM (inactive). For the same compound, the GI50 in assay [19], in assay [14], in assay [15], in [16], in [17] and in [18] was > 100 µM (inactive) in each case.
Consider `CO/C=C/C=C(\C#N)C(=O)OC`, for which the GI50 in [1] is > 100 µM (inactive); in [2], more than 100 µM; in assay [3] it was > 100 µM (inactive); in [4], > 100 µM (inactive); in assay [5], > 100 µM (inactive); in [6], > 100 µM (inactive). Moreover, the GI50 in [7], in [8], in assay [9], in assay [10], in assay [11] and in [12] was > 100 µM (inactive) throughout. Also, the GI50 in [19], in assay [14], in assay [15], in [16], in assay [17] and in assay [18] was > 100 µM (inactive) each time.
Turning to `COc1ccc(OC)c(N2C(=O)/C(=C\c3ccccc3)SC2c2cc(OC)c(OC)c(OC)c2)c1` (stereo unspecified), the GI50 was 22 µM (inactive) in assay [1]; 58.3 µM in [2]; > 100 µM (inactive) in [4]; > 80.5 µM (inactive) in assay [5]; > 100 µM (inactive) in assay [6]; > 100 µM (inactive) in [7]. In addition, the GI50 in [8] was > 83.6 µM (inactive); in assay [9], > 100 µM (inactive); in assay [10] it was > 100 µM (inactive); in assay [11] it was > 89.7 µM (inactive); in assay [12], 3.24 µM (inactive); in assay [13], > 100 µM (inactive). Besides, the GI50 was 4.06 µM (inactive) in assay [19]; > 85.7 µM (inactive) in [14]; > 84.3 µM (inactive) in assay [15]; > 91.6 µM (inactive) in assay [16]; > 100 µM (inactive) in assay [17]; > 78 µM (inactive) in assay [18].
For the compound `CC(C)(C)c1ccc(-c2nc3ccc(Cl)cc3c(=O)o2)cc1`, the GI50 in assay [1] was 25.2 µM (inactive); in assay [2] it was 13.9 µM; in assay [3], 26.2 µM (inactive); in assay [4], 0.324 µM (active); in assay [5], 11.4 µM (inactive); in assay [6], 14.5 µM (inactive). Also, the GI50 in assay [7] was 25.4 µM (inactive); in assay [8], 20.6 µM (inactive); in [9], 12.6 µM (inactive); in [10] it was 18.4 µM (inactive); in assay [11], 21.2 µM (inactive); in [12] it was 25 µM (inactive). Also, the GI50 in assay [13] is 17.9 µM (inactive); in assay [19] it was 18.8 µM (inactive); in assay [14], 11.9 µM (inactive); in assay [15], 25.4 µM (inactive); in [16] it was 17.7 µM (inactive); in assay [17], 27.1 µM (inactive). For the same compound, in [18], the GI50 was 30.5 µM (inactive).
